In patent publication US11078193B2 (priority 2014, dated 2021):

Columns and labels:
[1] = Cytotoxicity, HepG2 cells, Resazurin assay; assay type: cell-based; settings: human
HBV = assay: anti HBV activity, HepG2.117 inducibly HBV producing cell line (Tet-off), intracellular HBV DNA by realtime PCR; assay type: cell-based; settings: Hepatitis B virus, 72 h, HepG2.117 cells, 3 days of treatment

| Compound | CC50 at 4 days [1] [nM] | EC50 (HBV) [nM] |
| --- | --- | --- |
| Cn1cc(S(=O)(=O)NC2(C(F)(F)F)CCC2)c(F)c1C(=O)Nc1cc(Cl)nc(C#N)c1 [Compound 121, N-(2-chloro-6-cyano-4-pyridyl)-3-fluoro-1-methyl-4-[[1-(trifluoromethyl)cyclobutyl]sulfamoyl]pyrrole-2-carboxamide] | > 25000 | 40 |
| Cn1cc(S(=O)(=O)NC2(C(F)(F)F)CCC2)c(F)c1C(=O)Nc1ccnc(C#N)c1 [Compound 123, N-(2-cyano-4-pyridyl)-3-fluoro-1-methyl-4-[[1-(trifluoromethyl)cyclobutyl]sulfamoyl]pyrrole-2-carboxamide] | > 25000 | 10 |
| CC[C@@H](C)NS(=O)(=O)c1cn(C)c(C(=O)Nc2ccnc(C(F)(F)F)c2)c1F [Compound 68, 3-fluoro-1-methyl-4-[[(1R)-1-methylpropyl]sulfamoyl]-N-[2-(trifluoromethyl)-4-pyridyl]pyrrole-2-carboxamide] | > 25000 | 50 |
| C[C@H](CO)NS(=O)(=O)c1cn(C)c(C(=O)Nc2ccnc(Cl)c2)c1Cl [Compound 89, 3-chloro-N-(2-chloro-4-pyridyl)-4-[[(1R)-2-hydroxy-1-methyl-ethyl]sulfamoyl]-1-methyl-pyrrole-2-carboxamide] | > 25000 | 360 |
| CC[C@@H](NS(=O)(=O)c1cn(C)c(C(=O)Nc2ccnc(Cl)c2F)c1Cl)C(F)(F)F [Compound 112, 3-chloro-N-(2-chloro-3-fluoro-4-pyridyl)-1-methyl-[[(1R)-1-(trifluoromethyl)propyl]sulfamoyl]pyrrole-2-carboxamide] | > 25000 | 20 |
| C[C@@H](NS(=O)(=O)c1cn(C)c(C(=O)Nc2ccnc(Br)c2F)c1Cl)C(C)(F)F [Compound 148, N-(2-bromo-3-fluoro-4-pyridyl)-3-chloro-4-[[(1R)-2,2-difluoro-1-methyl-propyl]sulfamoyl]-1-methyl-pyrrole-2-carboxamide] | > 25000 | 20 |
| Cn1cc(S(=O)(=O)NC2(C(F)(F)F)CCC2)c(Cl)c1C(=O)Nc1ccnc(F)c1 [Compound 111, 3-chloro-N-(2-fluoro-4-pyridyl)-1-methyl-4-[[1-(trifluoromethyl)cyclobutyl]sulfamoyl]pyrrole-2-carboxamide] | > 25000 | 30 |
| C[C@@H](NS(=O)(=O)c1cn(C)c(C(=O)Nc2ccnc(Br)c2F)c1F)C(F)(F)F [Compound 153, N-(2-bromo-3-fluoro-4-pyridyl)-3-fluoro-1-methyl-4-[[(1R)-2,2,2-trifluoro-1-methyl-ethyl]sulfamoyl]pyrrole-2-carboxamide] | > 25000 | 20 |
| C[C@@H](NS(=O)(=O)c1cc(C(=O)Nc2ccnc(Cl)c2)n(C)c1)C(C)(F)F [Compound 103, N-(2-chloro-4-pyridyl)-4-[[(1R)-2,2-difluoro-1-methyl-propyl]sulfamoyl]-1-methyl-pyrrole-2-carboxamide] | > 25000 | 140 |
| Cn1cc(S(=O)(=O)NC2(C)CC(F)(F)C2)c(F)c1C(=O)Nc1ccnc(F)c1 [Compound 133, 4-[(3,3-difluoro-1-methyl-cyclobutyl)sulfamoyl]-3-fluoro-N-(2-fluoro-4-pyridyl)-1-methyl-pyrrole-2-carboxamide] | > 25000 | 50 |
| Cc1cc(NC(=O)c2c(Cl)c(S(=O)(=O)N[C@H](C)C(C)(F)F)cn2C)cc(Cl)n1 [Compound 149, 3-chloro-N-(2-chloro-6-methyl-4-pyridyl)-4-[[(1R)-2,2-difluoro-1-methyl-propyl]sulfamoyl]-1-methyl-pyrrole-2-carboxamide] | > 25000 | 60 |
| C[C@@H](NS(=O)(=O)c1cn(C)c(C(=O)Nc2ccnc(C#N)c2F)c1Cl)C(C)(F)F [Compound 151, 3-chloro-N-(2-cyano-3-fluoro-4-pyridyl)-4-[[(1R)-2,2-difluoro-1-methyl-propyl]sulfamoyl]-1-methyl-pyrrole-2-carboxamide] | > 25000 | 30 |
| CC(C)NS(=O)(=O)c1cn(C)c(C(=O)Nc2ccnc(C#N)c2)c1F [Compound 27, N-(2-cyano-4-pyridyl)-3-fluoro-4-(isopropylsulfamoyl)-1-methyl-pyrrole-2-carboxamide] | > 25000 | 100 |
| Cn1cc(S(=O)(=O)NC2(C(F)(F)F)CCC2)c(F)c1C(=O)Nc1ccnc(C(F)F)c1F [Compound 165, N-[2-(difluoromethyl)-3-fluoro-4-pyridyl]-3-fluoro-1-methyl-4-[[1-(trifluoromethyl)cyclobutyl]sulfamoyl]pyrrole-2-carboxamide] | > 25000 | 3 |
| C[C@@H](NS(=O)(=O)c1cc(C(=O)Nc2ccnc(F)c2)n(C)c1)C(C)(F)F [Compound 102, 4-[[(1R)-2,2-difluoro-1-methyl-propyl]sulfamoyl]-N-(2-fluoro-4-pyridyl)-1-methyl-pyrrole-2-carboxamide] | > 25000 | 180 |
| C[C@@H](NS(=O)(=O)c1cn(C)c(C(=O)Nc2ccc(F)c(Br)n2)c1Cl)C(F)(F)F [Compound 76, N-(6-bromo-5-fluoro-2-pyridyl)-3-chloro-1-methyl-4-[[(1R)-2,2,2-trifluoro-1-methyl-ethyl]sulfamoyl]pyrrole-2-carboxamide] | > 25000 | 50 |
| C[C@@H](NS(=O)(=O)c1cn(C)c(C(=O)Nc2ccnc(Cl)c2F)c1Cl)C(C)(F)F [Compound 107, 3-chloro-N-(2-chloro-3-fluoro-4-pyridyl)-4-[[(1R)-2,2-difluoro-1-methyl-propyl]sulfamoyl]-1-methyl-pyrrole-2-carboxamide] | > 25000 | 20 |
| C[C@@H](NS(=O)(=O)c1cn(C)c(C(=O)Nc2ccc(F)nc2)c1Cl)C(F)(F)F [Compound 50, 3-chloro-N-(6-fluoro-3-pyridyl)-1-methyl-4-[[(1R)-2,2,2-trifluoro-1-methyl-ethyl]sulfamoyl]pyrrole-2-carboxamide] | > 25000 | 200 |
| Cc1cc(NC(=O)c2c(F)c(S(=O)(=O)NC3(C)CC(F)(F)C3)cn2C)cc(Cl)n1 [Compound 130, N-(2-chloro-6-methyl-4-pyridyl)-4-[(3,3-difluoro-1-methyl-cyclobutyl)sulfamoyl]-3-fluoro-1-methyl-pyrrole-2-carboxamide] | > 25000 | 60 |
| C[C@@H](NS(=O)(=O)c1cn(C)c(C(=O)Nc2ccc(F)cn2)c1Cl)C(F)(F)F [Compound 51, 3-chloro-N-(5-fluoro-2-pyridyl)-1-methyl-4-[[(1R)-2,2,2-trifluoro-1-methyl-ethyl]sulfamoyl]pyrrole-2-carboxamide] | > 25000 | 600 |
| Cc1cc(NC(=O)c2c(F)c(S(=O)(=O)N[C@H](C)C(C)(F)F)cn2C)cc(Br)n1 [Compound 157, N-(2-bromo-6-methyl-4-pyridyl)-4-[[(1R)-2,2-difluoro-1-methyl-propyl]sulfamoyl]-3-fluoro-1-methyl-pyrrole-2-carboxamide] | > 25000 | 90 |
| C[C@@H](NS(=O)(=O)c1cn(C)c(C(=O)Nc2cc(F)ncc2F)c1Cl)C(F)(F)F [Compound 140, 3-chloro-N-(2,5-difluoro-4-pyridyl)-1-methyl-4-[[(1R)-2,2,2-trifluoro-1-methyl-ethyl]sulfamoyl]pyrrole-2-carboxamide] | > 25000 | 200 |
| C[C@@H](NS(=O)(=O)c1cn(C)c(C(=O)Nc2cc(C#N)ccn2)c1Cl)C(F)(F)F [Compound 183, 3-chloro-N-(4-cyano-2-pyridyl)-1-methyl-4-[[(1R)-2,2,2-trifluoro-1-methyl-ethyl]sulfamoyl]pyrrole-2-carboxamide] | > 25000 | 1400 |
| Cn1cc(S(=O)(=O)NC2(C)CC(F)(F)C2)c(Cl)c1C(=O)Nc1ccnc(Cl)c1F [Compound 114, 3-chloro-N-(2-chloro-3-fluoro-4-pyridyl)-4-[(3,3-difluoro-1-methyl-cyclobutyl)sulfamoyl]-1-methyl-pyrrole-2-carboxamide] | > 25000 | 10 |
| C[C@@H](NS(=O)(=O)c1cn(C)c(C(=O)Nc2ccnc(C#N)c2F)c1F)C(F)(F)F [Compound 155, N-(2-cyano-3-fluoro-4-pyridyl)-3-fluoro-1-methyl-4-[[(1R)-2,2,2-trifluoro-1-methyl-ethyl]sulfamoyl]pyrrole-2-carboxamide] | > 25000 | 20 |
| C[C@H](NS(=O)(=O)c1cn(C)c(C(=O)Nc2ccnc(Cl)c2)c1F)C(C)(F)F [Compound 59, N-(2-chloro-4-pyridyl)-4-[[(1S)-2,2-difluoro-1-methyl-propyl]sulfamoyl]-3-fluoro-1-methyl-pyrrole-2-carboxamide] | > 25000 | 70 |
| C[C@@H](NS(=O)(=O)c1cn(C)c(C(=O)Nc2ccc(F)c(Cl)n2)c1Cl)C(F)(F)F [Compound 75, 3-chloro-N-(6-chloro-5-fluoro-2-pyridyl)-1-methyl-4-[[(1R)-2,2,2-trifluoro-1-methyl-ethyl]sulfamoyl]pyrrole-2-carboxamide] | > 25000 | 60 |
| C[C@@H](NS(=O)(=O)c1cn(C)c(C(=O)Nc2cc(F)nc(F)c2F)c1Cl)C(F)(F)F [Compound 43, 3-chloro-1-methyl-4-[[(1R)-2,2,2-trifluoro-1-methyl-ethyl]sulfamoyl]-N-(2,3,6-trifluoro-4-pyridyl)pyrrole-2-carboxamide] | > 25000 | 80 |
| C[C@@H](NS(=O)(=O)c1cn(C)c(C(=O)Nc2ccc(F)c(C#N)n2)c1C#N)C(F)(F)F [Compound 181, 3-cyano-N-(6-cyano-5-fluoro-2-pyridyl)-1-methyl-4-[[(1R)-2,2,2-trifluoro-1-methyl-ethyl]sulfamoyl]pyrrole-2-carboxamide] | > 25000 | 1000 |
| Cn1cc(S(=O)(=O)NC2(C)CC(F)(F)C2)c(F)c1C(=O)Nc1ccnc(C(F)(F)F)c1 [Compound 55, 4-[(3,3-difluoro-1-methyl-cyclobutyl)sulfamoyl]-3-fluoro-1-methyl-N-[2-(trifluoromethyl)-4-pyridyl]pyrrole-2-carboxamide] | > 25000 | 70 |
